Data from article PMC2216945 (The Journal of General Physiology, 1995).

Target: cystic fibrosis transmembrane conductance regulator (CFTR) (Homo sapiens, UniProt P13569)
Assay: inside-out patch clamp, inhibition of ATP-dependent channel open probability
Format: cell-based

Chain of cystic fibrosis transmembrane conductance regulator (CFTR) (P13569 whole entry): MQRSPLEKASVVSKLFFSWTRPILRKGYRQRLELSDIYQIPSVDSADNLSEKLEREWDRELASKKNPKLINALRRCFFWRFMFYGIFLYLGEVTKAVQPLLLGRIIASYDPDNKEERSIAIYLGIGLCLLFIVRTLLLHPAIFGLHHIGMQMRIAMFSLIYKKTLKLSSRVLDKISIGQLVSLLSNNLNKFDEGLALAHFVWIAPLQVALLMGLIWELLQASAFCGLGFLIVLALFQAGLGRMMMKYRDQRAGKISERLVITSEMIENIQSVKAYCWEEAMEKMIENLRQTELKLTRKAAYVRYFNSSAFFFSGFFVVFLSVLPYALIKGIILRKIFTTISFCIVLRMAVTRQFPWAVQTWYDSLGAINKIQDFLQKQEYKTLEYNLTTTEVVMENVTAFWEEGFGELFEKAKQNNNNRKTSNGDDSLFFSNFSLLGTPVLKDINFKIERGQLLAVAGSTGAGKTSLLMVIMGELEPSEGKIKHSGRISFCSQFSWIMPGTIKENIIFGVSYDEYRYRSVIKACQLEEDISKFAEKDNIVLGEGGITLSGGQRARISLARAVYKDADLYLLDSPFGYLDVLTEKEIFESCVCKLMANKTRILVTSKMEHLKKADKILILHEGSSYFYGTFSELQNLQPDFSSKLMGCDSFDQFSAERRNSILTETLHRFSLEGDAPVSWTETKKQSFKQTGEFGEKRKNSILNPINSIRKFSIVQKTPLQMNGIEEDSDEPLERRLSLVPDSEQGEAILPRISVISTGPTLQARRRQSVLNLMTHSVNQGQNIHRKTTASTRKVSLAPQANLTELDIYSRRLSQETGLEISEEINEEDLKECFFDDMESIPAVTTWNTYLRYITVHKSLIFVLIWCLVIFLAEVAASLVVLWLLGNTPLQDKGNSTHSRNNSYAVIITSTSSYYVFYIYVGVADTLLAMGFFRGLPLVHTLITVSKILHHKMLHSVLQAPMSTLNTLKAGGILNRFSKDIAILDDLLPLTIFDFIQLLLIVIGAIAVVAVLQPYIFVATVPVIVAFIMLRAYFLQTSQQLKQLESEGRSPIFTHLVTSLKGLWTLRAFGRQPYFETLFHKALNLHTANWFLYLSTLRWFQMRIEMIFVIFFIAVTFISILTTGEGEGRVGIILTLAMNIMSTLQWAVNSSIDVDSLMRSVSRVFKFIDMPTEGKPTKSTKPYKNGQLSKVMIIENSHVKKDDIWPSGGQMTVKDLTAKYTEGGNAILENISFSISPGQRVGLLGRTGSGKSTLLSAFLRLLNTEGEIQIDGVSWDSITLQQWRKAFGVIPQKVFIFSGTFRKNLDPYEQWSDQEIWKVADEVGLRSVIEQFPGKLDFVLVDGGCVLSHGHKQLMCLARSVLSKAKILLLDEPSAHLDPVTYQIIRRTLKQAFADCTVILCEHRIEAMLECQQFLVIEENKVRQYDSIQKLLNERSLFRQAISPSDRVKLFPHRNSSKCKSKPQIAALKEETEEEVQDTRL

Nc1ncnc2c1ncn2[C@@H]1O[C@H](COP(=O)(O)OP(=O)(O)O)[C@@H](O)[C@H]1O [ADP]
Ki: 16 ± 9 µM
